Reference: patent US8178506B2, “Oligomeric compounds and compositions for use in modulation of small non-coding RNAs” (Regulus Therapeutics Inc., priority 2003, dated 2012)
In the oligonucleotide strings, read from the 5' end, every base follows the letter of its sugar. An asterisk marks phosphorothioate; unmarked linkages are phosphodiester. Other units and linkages are bracketed, terminal groups are in braces. A string of capitals states the bases alone. e = 2'-O-(2-methoxyethyl) (MOE); [5mC] = 5-methylcytosine

Key:
[1] = test system: PPARγ; experiment: PPARγ mRNA expression in adipocytes (real-time PCR); type: cell-based, human; settings: for PPAR gamma mRNA: differentiating adipocytes transfected with oligomeric compound, Table 75; for PPAR-gamma mRNA: differentiating adipocytes day 10 post-induction, 24 hours after treatment; for PPAR gamma (mRNA expression): adipocytes, 250 nM oligomeric compound, day nine post-transfection, relative to control (1.0)
[2] = test system: HuVECs; experiment: Endothelial tube formation assay in HuVECs; settings: 75 nM oligomeric compound
Description: In some embodiments, HUVECs are used to measure the effects of oligomeric compounds of the invention on endothelial tube formation activity. The tube formation assay is performed using an in vitro Angiogenesis Assay Kit (Chemicon International, Temecula, Calif.).
Untreated control cells receive LIPOFECTIN™ only.
Approximately fifty hours after transfection, cells are transferred to 96-well plates coated with ECMatrix™ (Chemicon International). Under these conditions, untreated HUVECs form tube-like structures. After an overnight incubation at 37° C., treated and untreated cells are inspected by light microscopy. Tube formation in cells treated with oligomeric compounds is compared to that in untreated control cells. Individual wells are assigned discrete scores from 1 to 5 depending on the extent of tube formation. A score of 1 refers to a well with no tube formation while a score of 5 is given to wells where all cells are forming an extensive tubular network.
In one embodiment, primary human umbilical vein endothelial cells (HuVECs) were used to measure the effects of oligomeric compounds targeted to miRNAs on tube formation activity. HuVECs were routinely cultured in EBM (Clonetics Corporation, Walkersville, Md.) supplemented with SingleQuots supplements (Clonetics Corporation, Walkersville, Md.). […] HuVECs are plated at 3000 cells/well in 96-well plates. One day later, cells are transfected with oligomeric compounds. The tube formation assay is performed using an in vitro Angiogenesis Assay Kit (Chemicon International, Temecula, Calif.).
ISIS 29248 and ISIS 196103 are chimeric 5-10-52′-MOE gapmer oligonucleotides. […] All cytidine residues are 5-methylcytidines. ISIS 342672 (SEQ ID NO: 789) contains 13 mismatches with respect to the mature mir-143 miRNA, and was also used as a negative control. ISIS 342672 is a uniform 2′-MOE phosphorothioate oligomeric compound 22 nucleotides in length. All cytidine residues are 5-methylcytidines.
Oligomeric compound was mixed with LIPOFECTIN™ (Invitrogen Life Technologies, Carlsbad, Calif.) in OPTI-MEM™ (Invitrogen Life Technologies, Carlsbad, Calif.) to achieve a final concentration of 75 nM of oligomeric compound and 2.25 μg/mL LIPOFECTIN™. Before adding to cells, the oligomeric compound, LIPOFECTIN™ and OPTI-MEM™ were mixed thoroughly and incubated for 0.5 hrs. Untreated control cells received LIPOFECTIN™ only. […] Compounds targeted to miRNAs were tested in triplicate, and ISIS 29848 was tested in up to six replicates. […] 100 μL of full growth medium was added to each well. Fifty hours after transfection, cells are transferred to 96-well plates coated with ECMa-trix™ (Chemicon Inter-national). Under these conditions, untreated HuVECs form tube-like structures.

[3] = test system: aP2; experiment: aP2 mRNA expression in adipocytes (real-time PCR); type: cell-based, human; settings: for aP2 mRNA: differentiating adipocytes transfected with oligomeric compound, Table 75; for AP2 mRNA: differentiating adipocytes day 10 post-induction, 24 hours after treatment; for AP2 (mRNA expression): adipocytes, 250 nM oligomeric compound, day nine post-transfection, relative to control (1.0)
[4] = test system: HSL; experiment: HSL mRNA expression in adipocytes (real-time PCR); type: cell-based, human; settings: for HSL (mRNA expression): adipocytes, 250 nM oligomeric compound, day nine post-transfection, relative to control (1.0)
[5] = test system: adipocytes; experiment: Triglyceride accumulation assay in adipocytes; type: cell-based, human; settings: for Triglycerides: differentiating adipocytes day 10 post-induction, 24 hours after treatment
[6] = test system: Glut4; experiment: Glut4 mRNA expression in adipocytes (real-time PCR); type: cell-based, human; settings: for Glut4 (mRNA expression): adipocytes, 250 nM oligomeric compound, day nine post-transfection, relative to control (1.0)
[7] = differentiating adipocytes transfected with oligomeric compound, Table 75
[8] = Table 20, adipocyte differentiation assay as in Example 13
[9] = 50 nM, differentiating adipocytes day 10 post-induction, 24 hours after treatment
[10] = 100 nM, differentiating adipocytes day 10 post-induction, 24 hours after treatment
[11] = 200 nM, differentiating adipocytes day 10 post-induction, 24 hours after treatment
[12] = 300 nM, differentiating adipocytes day 10 post-induction, 24 hours after treatment
[13] = adipocytes, 250 nM oligomeric compound, relative to control (1.0), Table 15
[14] = adipocytes, 250 nM oligomeric compound, relative to control (1.0), Table 16

Substance: 327895 (antisense eA*e[5mC]*eA*eA*eA*e[5mC]*eA*e[5mC]*e[5mC]*eA*eT*eT*eG*eT*e[5mC]*eA*e[5mC]*eA*e[5mC]*eT*e[5mC]*e[5mC]*eA) [compound 327895]
- PPAR gamma mRNA [1]: 86 percentage of untreated control (UTC)
- % Activity Relative to UTC (tube formation) ([2]; Table 56): 100.0%
- aP2 mRNA [3]: 90 percentage of untreated control (UTC)
- HSL mRNA [4, 7]: 88 percentage of untreated control (UTC)
- TG (triglyceride accumulation) [5, 7]: 76 percentage of untreated control (UTC)
- GLUT4 mRNA [6, 7]: 76 percentage of untreated control (UTC)

Substance: 327896 (antisense eA*e[5mC]*eA*eG*eT*eT*e[5mC]*eT*eT*e[5mC]*eA*eA*e[5mC]*eT*eG*eG*e[5mC]*eA*eG*e[5mC]*eT*eT) [compound 327896]
- PPAR gamma mRNA [1]: 52 percentage of untreated control (UTC)
- % Activity Relative to UTC (tube formation) ([2]; Table 56): 64.3%
- aP2 mRNA [3]: 43 percentage of untreated control (UTC)
- HSL mRNA [4, 7]: 37 percentage of untreated control (UTC)
- TG (triglyceride accumulation) [5, 7]: 22 percentage of untreated control (UTC)
- GLUT4 mRNA [6, 7]: 35 percentage of untreated control (UTC)

Substance: 327897 (antisense eA*e[5mC]*eA*eG*eG*e[5mC]*e[5mC]*eG*eG*eG*eA*e[5mC]*eA*eA*eG*eT*eG*e[5mC]*eA*eA*eT*eA) [compound 327897]
- PPAR gamma mRNA [1]: 66 percentage of untreated control (UTC)
- % Activity Relative to UTC (tube formation) ([2]; Table 59): 40.0%
- aP2 mRNA [3]: 62 percentage of untreated control (UTC)
- HSL mRNA [4, 7]: 39 percentage of untreated control (UTC)
- TG (triglyceride accumulation) [5, 7]: 28 percentage of untreated control (UTC)
- GLUT4 mRNA [6, 7]: 32 percentage of untreated control (UTC)

Substance: 327899 (antisense e[5mC]*eA*eG*eT*eG*eA*eA*eT*eT*e[5mC]*eT*eA*e[5mC]*e[5mC]*eA*eG*eT*eG*e[5mC]*e[5mC]*eA*eT*eA) [compound 327899]
- PPAR gamma mRNA [1]: 62 percentage of untreated control (UTC)
- % Activity Relative to UTC (tube formation) ([2]; Table 57): 34.5%
- aP2 mRNA [3]: 47 percentage of untreated control (UTC)
- HSL mRNA [4, 7]: 27 percentage of untreated control (UTC)
- TG (triglyceride accumulation) [5, 7]: 25 percentage of untreated control (UTC)
- GLUT4 mRNA [6, 7]: 14 percentage of untreated control (UTC)

Substance: 327900 (antisense e[5mC]*eT*eG*e[5mC]*e[5mC]*eT*eG*eT*e[5mC]*eT*eG*eT*eG*e[5mC]*e[5mC]*eT*eG*e[5mC]*eT*eG*eT) [compound 327900]
- PPAR gamma mRNA [1]: 55 percentage of untreated control (UTC)
- % Activity Relative to UTC (tube formation) ([2]; Table 57): 55.2%
- aP2 mRNA [3]: 32 percentage of untreated control (UTC)
- HSL mRNA [4, 7]: 21 percentage of untreated control (UTC)
- TG (triglyceride accumulation) [5, 7]: 26 percentage of untreated control (UTC)
- GLUT4 mRNA [6, 7]: 12 percentage of untreated control (UTC)

Substance: 327901 (antisense eT*eG*eA*eG*e[5mC]*eT*eA*e[5mC]*eA*eG*eT*eG*e[5mC]*eT*eT*e[5mC]*eA*eT*e[5mC]*eT*e[5mC]*eA) [compound 327901]
- PPAR-gamma mRNA ([1]; 50 nM): 74.6 % UTC
- PPAR-gamma mRNA ([1]; 100 nM): 70.8 % UTC
- PPAR-gamma mRNA ([1]; 200 nM): 51.8 % UTC
- PPAR-gamma mRNA ([1]; 300 nM): 39.3 % UTC
- PPAR gamma [1, 8]: 0.30
- PPAR gamma (mRNA expression) ([1]; Table 15): 0.30
- PPAR gamma (mRNA expression) ([1]; Table 16): 0.72
- % Activity Relative to UTC (tube formation) ([2]; Table 57): 48.3%
- % Activity Relative to UTC (tube formation) ([2]; Table 59): 100.0%
- AP2 mRNA ([3]; 50 nM): 78.3 % UTC
- AP2 mRNA ([3]; 100 nM): 64.6 % UTC
- AP2 mRNA ([3]; 200 nM): 39.0 % UTC
- AP2 mRNA ([3]; 300 nM): 22.4 % UTC
- AP2 [3, 8]: 0.42
- AP2 (mRNA expression) ([3]; Table 15): 0.42
- AP2 (mRNA expression) ([3]; Table 16): 0.47
- HSL mRNA [4, 9]: 89.5 % UTC
- HSL mRNA [4, 10]: 73.5 % UTC
- HSL mRNA [4, 11]: 40.2 % UTC
- HSL mRNA [4, 12]: 11.9 % UTC
- HSL [4, 8]: 0.33
- HSL (mRNA expression) ([4]; Table 15): 0.33
- HSL (mRNA expression) ([4]; Table 16): 0.47
- Triglycerides ([5]; 50 nM): 85.3 % UTC
- Triglycerides ([5]; 100 nM): 68.9 % UTC
- Triglycerides ([5]; 200 nM): 34.0 % UTC
- Triglycerides ([5]; 300 nM): 23.0 % UTC
- TG [5, 8]: 0.54
- TG (triglyceride accumulation) [5, 13]: 0.54
- TG (triglyceride accumulation) [5, 14]: 0.53
- GLUT4 mRNA [6, 9]: 74.2 % UTC
- GLUT4 mRNA [6, 10]: 49.7 % UTC
- GLUT4 mRNA [6, 11]: 32.8 % UTC
- GLUT4 mRNA [6, 12]: 17.4 % UTC
- Glut4 [6, 8]: 0.19
- Glut4 (mRNA expression) ([6]; Table 15): 0.19
- Glut4 (mRNA expression) ([6]; Table 16): 0.29

Substance: 327902 (antisense eG*eG*e[5mC]*eT*eG*eT*e[5mC]*eA*eA*eT*eT*e[5mC]*eA*eT*eA*eG*eG*eT*e[5mC]*eA*eG) [compound 327902]
- PPAR gamma mRNA [1]: 56 percentage of untreated control (UTC)
- % Activity Relative to UTC (tube formation) ([2]; Table 57): 41.4%
- aP2 mRNA [3]: 58 percentage of untreated control (UTC)
- HSL mRNA [4, 7]: 56 percentage of untreated control (UTC)
- TG (triglyceride accumulation) [5, 7]: 55 percentage of untreated control (UTC)
- GLUT4 mRNA [6, 7]: 15 percentage of untreated control (UTC)

Substance: 327903 (antisense eA*eA*e[5mC]*eT*eA*eT*eA*e[5mC]*eA*eA*e[5mC]*e[5mC]*eT*eA*e[5mC]*eT*eA*e[5mC]*e[5mC]*eT*e[5mC]*eA) [compound 327903]
- PPAR gamma (mRNA expression) ([1]; Table 15): 1.19
- PPAR gamma (mRNA expression) ([1]; Table 16): 0.98
- % Activity Relative to UTC (tube formation) ([2]; Table 57): 103.5%
- AP2 (mRNA expression) ([3]; Table 15): 1.15
- AP2 (mRNA expression) ([3]; Table 16): 0.92
- HSL (mRNA expression) ([4]; Table 15): 1.23
- HSL (mRNA expression) ([4]; Table 16): 0.80
- TG (triglyceride accumulation) [5, 13]: 1.20
- TG (triglyceride accumulation) [5, 14]: 0.58
- Glut4 (mRNA expression) ([6]; Table 15): 1.72
- Glut4 (mRNA expression) ([6]; Table 16): 1.12
